In brackets after ≈: the same amount, converted by molar mass.
How the values were obtained:
HEL [1] = experiment: Tested for cytotoxic activity in human embryonic lung fibroblast (HEL); type: functional
HeLa [2] = experiment: Tested for cytotoxic activity in human epithelial cell line (HeLa); type: functional
CCRF-CEM [3] = experiment: Tested for the inhibitory concentration against cell growth of human leukemic cell line CCRF-CEM; type: functional
E6SM [4] = experiment: (§1) Tested for antiviral activity against thymidine kinase wild type Varicella zoster virus in human embryonic lung fibroblast; type: functional
Escherichia coli [5] = experiment: Tested for the antimicrobial activity against Escherichia coli ATCC 25922; type: functional
MOLT-4 [6] = experiment: Tested for the concentration required to reduce the viability of leukemia cells by 50% against cell growth of T cell leukemia cell line MOLT-4 using MTT assay; type: functional; settings: Homo sapiens, read-out: LC50 (the source's name)
RPMI-8226 [7] = experiment: Tested for the inhibitory concentration against cell growth of […] multiple myeloma using MTT assay; type: functional; settings: Homo sapiens
Staphylococcus aureus = experiment: Tested for the antimicrobial activity against Staphylococcus aureus ATCC 6538; type: functional
Vero [8] = experiment: Tested for antiviral activity against Punta toro virus in African green monkey kidney cell (Vero); type: functional; settings: Chlorocebus sabaeus
E6SM [9] = experiment: The compound was tested for antiviral activity against thymidine kinase-deficient (TK-HSV-1)virus in E6SM cell line(human embryonic skin-muscle fibroblasts); type: functional
Vero [10] = experiment: Tested for antiviral activity against coxsackie B-4 virus in African green monkey kidney cell (Vero); type: functional; settings: Chlorocebus sabaeus
HL-60 [11] = experiment: Tested for the concentration required to reduce the viability of leukemia cells by 50% against cell growth of HL60 acute myeloid leukemia using MTT assay; type: functional; settings: Homo sapiens, read-out: LC50 (the source's name)
MOLT-4 [12] = experiment: Tested for the inhibitory concentration against cell growth of human leukemic cell line MOLT-4; type: functional
E6SM [13] = experiment: Tested for antiviral activity against thymidine kinase-deficient (TK-HSV-2G) virus in E6SM cell line(human embryonic skin-muscle fibroblasts); type: functional
E6SM [14] = experiment: Tested for cytotoxic activity in human embryonic skin muscle fibroblast (E6SM); type: functional; settings: Muscle tissue
[15] = test system: Staphylococcus epidermidis; experiment: Tested for the antimicrobial activity against Staphylococcus epidermidis ATCC 12228; type: functional
HEL [16] = experiment: Tested for antiviral activity against human cytomegalovirus (AD-169) in human embryonic lung fibroblasts; type: functional
Staphylococcus hominis [17] = experiment: (§2) Tested for the antimicrobial activity against Staphylococcus hominis ATCC 27844; type: functional
HL-60 [18] = experiment: Tested for the inhibitory concentration against cell growth of HL60 acute myeloid leukemia using MTT assay; type: functional; settings: Homo sapiens
HeLa [19] = experiment: The compound was tested for antiviral activity against VSV-virus in human epithelial cells; type: functional
E6SM [20] = experiment: Tested for antiviral activity against VSV-virus in human embryonic skin muscle fibroblasts; type: functional; settings: Muscle tissue
Vero [21] = experiment: Tested for antiviral activity against Sindbis virus in African green monkey kidney cell (Vero); type: functional; settings: Chlorocebus sabaeus
CCRF-CEM [22] = experiment: Tested for the concentration required to reduce the viability of leukemia cells by 50% against cell growth of T cell leukemia cell line CCRF-CEM using MTT assay; type: functional; settings: Homo sapiens, read-out: LC50 (the source's name)
Vero [23] = experiment: Tested for antiviral activity against parainfluenza virus in african green monkey kidney cell (Vero); type: functional; settings: Chlorocebus sabaeus
HeLa [24] = experiment: Tested for antiviral activity against coxsackie-B4 virus in human epithelial cell line; type: functional
E6SM [25] = experiment: Tested for antiviral activity against herpes simplex virus type 1(KOS) in E6SM cell line(human embryonic skin-muscle fibroblasts); type: functional
RPMI-8226 [26] = experiment: Tested for the inhibitory concentration against cell growth of human leukemic cell line RPMI8226; type: functional
Vero [27] = experiment: Tested for antiviral activity against Reo-1 virus in African green monkey kidney cell (Vero); type: functional; settings: Chlorocebus sabaeus
E6SM [28] = experiment: Tested for antiviral activity against vaccinia virus in human embryonic skin muscle fibroblast; type: functional; settings: Muscle tissue
MT4 [29] = experiment: (§3) Tested for effective concentration required to protect MT-4 cells against the cytopathicity of HIV-1(IIIB); type: functional, cell-based; settings: Homo sapiens
HuT78 [30] = experiment: Tested for the concentration required to reduce the viability of leukemia cells by 50% against cell growth of HuT78 T lymphoma using MTT assay; type: functional; settings: Homo sapiens, read-out: LC50 (the source's name)
RPMI-8226 [31] = experiment: Tested for the concentration required to reduce the viability of leukemia cells by 50% against cell growth of RPMI8226 multiple myeloma using MTT assay; type: functional; settings: Homo sapiens
MT4 [32] = experiment: Tested for cytotoxic concentration required to reduce the viability of MT-4 cells by 50%; type: functional; settings: Homo sapiens
HL-60 [33] = experiment: Tested for the inhibitory concentration against cell growth of human leukemic cell line HL60; type: functional
HuT78 [34] = experiment: Tested for the inhibitory concentration against cell growth of human leukemic cell line HuT78; type: functional
Klebsiella pneumoniae [35] = experiment: Tested for the antimicrobial activity against Klebsiella pneumoniae ATCC 13883; type: functional
K562 [36] = experiment: Tested for the concentration required to reduce the viability of leukemia cells by 50% against cell growth of K562 chronic myeloid leukemia using MTT assay; type: functional; settings: Homo sapiens, read-out: LC50 (the source's name)
Vero [37] = experiment: Tested for cytotoxic activity in African green monkey kidney cells (Vero); type: functional; settings: Chlorocebus sabaeus
HEL [38] = experiment: Tested for antiviral activity against thymidine kinase deficient Varicella zoster virus in human embryonic lung fibroblasts; type: functional
K562 [39] = experiment: Tested for the inhibitory concentration against cell growth of human leukemic cell line K562; type: functional
HuT78 [40] = experiment: Tested for the inhibitory concentration against cell growth of HuT78 T lymphoma using MTT assay; type: functional; settings: Homo sapiens
HEL [41] = experiment: as §1; type: functional
MOLT-4 [42] = experiment: Tested for the inhibitory concentration against cell growth of Tcell leukemic cell line MOLT-4 using MTT assay; type: functional; settings: Homo sapiens
CCRF-CEM [43] = experiment: Tested for the inhibitory concentration against cell growth of Tcell leukemic cell line CCRF-CEM using MTT assay; type: functional; settings: Homo sapiens
[44] = as §2; type: functional
K562 [45] = experiment: Tested for the inhibitory concentration against cell growth of K562 chronic myeloid leukemia using MTT assay; type: functional; settings: Homo sapiens
MT4 [46] = experiment: Tested for effective concentration required to protect MT-4 cells against the cytopathicity of HIV-2(ROD); type: functional, cell-based; settings: Homo sapiens
E6SM [47] = experiment: Antiviral activity against thymidine kinase-deficient (TK-HSV-1)virus in E6SM cell line(human embryonic skin-muscle fibroblasts); type: functional
MT4 [48] = experiment: as §3; type: functional; settings: Homo sapiens, read-out: LC50 (the source's name)
E6SM [49] = experiment: Antiviral activity against thymidine kinase-deficient (TK-HSV-2G) virus in E6SM cell line(human embryonic skin-muscle fibroblasts); type: functional
HEL [50] = experiment: Tested for antiviral activity against thymidine kinase deficient Varicella zoster virus in human embryonic lung fibroblasts
Klebsiella pneumoniae [51] = experiment: Tested for the antimicrobial activity minimum inhibitory concentration) against Klebsiella pneumoniae; type: functional
Staphylococcus hominis [52] = experiment: Tested for the antimicrobial activity minimum inhibitory concentration) against Staphylococcus hominis; type: functional
Escherichia coli [53] = experiment: Tested for the antimicrobial activity minimum inhibitory concentration) against Escherichia coli; type: functional
[54] = read-out: LC50 (the source's name)

## N/C(S)=N\N=C(\c1ccccn1)C12CC3CC(CC(C3)C1)C2
HEL [1]
  MCC: > 20 µg/mL
HeLa [2]
  MCC: > 400 µg/mL
CCRF-CEM [3]
  GI50: 100 µM
E6SM [4]
  MIC: > 20 µg/mL
Escherichia coli [5]
  MIC: > 3180 µg/mL
MOLT-4 [6]
  CC50: 100 µM
RPMI-8226 [7]
  TGI: 100 µM
Staphylococcus aureus
  MIC: > 3180 µg/mL
Vero [8]
  MIC: > 3.2 µg/mL
E6SM [9]
  CC50: > 400 µg/mL
Vero [10]
  MIC: > 3.2 µg/mL
HL-60 [11]
  CC50: 100 µM
MOLT-4 [12]
  GI50: 6.4 µM
E6SM [13]
  MIC: > 400 µg/mL
E6SM [14]
  MCC: > 400 µg/mL
[15]
  MIC: > 3180 µg/mL
HEL [16]
  MIC: > 5 µg/mL
Staphylococcus hominis [17]
  MIC: > 3180 µg/mL
HL-60 [18]
  TGI: 100 µM
HeLa [19]
  MIC: > 400 µg/mL
E6SM [20]
  MIC: > 400 µg/mL
Vero [21]
  MIC: > 3.2 µg/mL
CCRF-CEM [22]
  CC50: 100 µM
Vero [23]
  MIC: > 3.2 µg/mL
HeLa [24]
  MIC: 240 µg/mL (≈ 763 µM)
E6SM [25]
  CC50: > 400 µg/mL
RPMI-8226 [26]
  GI50: 97.9 µM
Vero [27]
  MIC: > 3.2 µg/mL
E6SM [28]
  MIC: > 400 µg/mL
MT4 [29]
  EC50: > 400 µM
HuT78 [30]
  CC50: 100 µM
RPMI-8226 [31]
  CC50: 100 µM
MT4 [32]; [54]
  CC50: > 400 µM
HL-60 [33]
  GI50: 51.1 µM
HuT78 [34]
  GI50: 2.4 µM
Klebsiella pneumoniae [35]
  MIC: > 3180 µg/mL
K562 [36]
  CC50: 100 µM
Vero [37]
  MCC: 16 µg/mL
HEL [38]
  MIC: > 20 µg/mL

## S=C(N/N=C(/c1ccccn1)C12CC3CC(CC(C3)C1)C2)NNC(=S)c1ccc(Cl)cc1
K562 [39]
  GI50: 100 µM
HEL [1]
  MCC: 5 µg/mL
HeLa [2]
  MCC: > 16 µg/mL
HuT78 [40]
  TGI: 100 µM
CCRF-CEM [3]
  GI50: 76 µM
HEL [41]
  MIC: > 2 µg/mL
Escherichia coli [5]
  MIC: > 2000 µg/mL
MOLT-4 [6]
  CC50: 100 µM
RPMI-8226 [7]
  TGI: 68.3 µM
MOLT-4 [42]
  TGI: 100 µM
Staphylococcus aureus
  MIC: 1000 µg/mL (≈ 2070 µM)
Vero [8]
  MIC: > 16 µg/mL
Vero [10]
  MIC: 9.6 µg/mL (≈ 19.8 µM)
HL-60 [11]
  CC50: 85.5 µM
MOLT-4 [12]
  GI50: 100 µM
E6SM [14]
  MCC: 80 µg/mL
[15]
  MIC: 1000 µg/mL (≈ 2070 µM)
CCRF-CEM [43]
  TGI: 100 µM
HEL [16]
  MIC: > 5 µg/mL
[44]
  MIC: 1000 µg/mL (≈ 2070 µM)
HL-60 [18]
  TGI: 9.5 µM
HeLa [19]
  MIC: > 3.2 µg/mL
K562 [45]
  TGI: 100 µM
E6SM [20]
  MIC: > 16 µg/mL
MT4 [46]
  EC50: > 3 µM
Vero [21]
  MIC: > 16 µg/mL
CCRF-CEM [22]
  CC50: 100 µM
Vero [23]
  MIC: > 16 µg/mL
HeLa [24]
  MIC: > 3.2 µg/mL
E6SM [25]
  MIC: > 16 µg/mL
RPMI-8226 [26]
  GI50: 6.7 µM
Vero [27]
  MIC: > 16 µg/mL
E6SM [28]
  MIC: > 16 µg/mL
HuT78 [30]
  CC50: 100 µM
RPMI-8226 [31]; [54]
  CC50: 100 µM
MT4 [32]
  CC50: 2.8 µM
E6SM [47]
  MIC: > 16 µg/mL
HL-60 [33]
  GI50: 4.1 µM
MT4 [48]
  EC50: > 3 µM
E6SM [49]
  MIC: > 16 µg/mL
HuT78 [34]
  GI50: 8 µM
Klebsiella pneumoniae [35]
  MIC: > 2000 µg/mL
K562 [36]
  CC50: 100 µM
Vero [37]
  MCC: 80 µg/mL
HEL [38]
  MIC: > 2 µg/mL

## Nc1nc2c(ncn2COCCO)c(=O)[nH]1 [ACYCLOVIR]
HEL [1]
  MCC: > 50 µg/mL
HEL [41]
  MIC: 1.1 µg/mL (≈ 4.88 µM)
HEL [50]
  MIC: 12.3 µg/mL (≈ 54.6 µM)
E6SM [9]
  MIC: 48 µg/mL (≈ 213 µM)
E6SM [13]
  MIC: 0.08 µg/mL (≈ 0.355 µM)
E6SM [14]
  MCC: > 400 µg/mL
E6SM [20]
  MIC: 48 µg/mL (≈ 213 µM)
E6SM [25]
  MIC: 0.08 µg/mL (≈ 0.355 µM)
E6SM [28]
  MIC: > 400 µg/mL

## NC(=O)c1ncn([C@@H]2O[C@H](CO)[C@@H](O)[C@H]2O)n1 [RIBAVIRIN]
HeLa [2]
  MCC: > 400 µg/mL
Klebsiella pneumoniae [51]
  MIC: > 400 µg/mL
Vero [8]
  MIC: 16 µg/mL (≈ 65.5 µM)
Vero [10]
  MIC: 240 µg/mL (≈ 983 µM)
E6SM [14]
  MCC: > 400 µg/mL
HeLa [19]
  MIC: 240 µg/mL (≈ 983 µM)
E6SM [20]
  MIC: 400 µg/mL (≈ 1640 µM)
Vero [21]
  MIC: 80 µg/mL (≈ 328 µM)
Vero [23]
  MCC: 48 µg/mL
HeLa [24]
  MIC: 48 µg/mL (≈ 197 µM)
Vero [27]
  MIC: 80 µg/mL (≈ 328 µM)
Staphylococcus hominis [52]
  MIC: > 400 µg/mL
E6SM [28]
  MIC: 240 µg/mL (≈ 983 µM)
Escherichia coli [53]
  MIC: > 400 µg/mL
Vero [37]
  MCC: > 400 µg/mL
